Where two headings read alike, the source gives them in different places. A value given as a limit tells only on which side of the number the result lay.

Data set [1] can be described thus: Plasma protein binding assay (PPB), equilibrium dialysis, 10% FCS in PBS. The format is in vitro ADME. As to conditions: bovine, read-out: PPB 10% FCS (% fu). The method, then: Binding of test compounds to plasma was determined using equilibrium dialysis (ED) and quantitative mass spectrometry interfaced with liquid chromatography (LC-MS). In brief, ED was performed with dialysis devices consisting of two chambers separated by a semipermeable membrane with a molecular weight cut-off of 5-10 kg/mol. One chamber was filled with 10% FCS in PBS containing 1-10 μmol/L test compound and the other chamber was filled with phosphate-buffer saline (PBS) with or without dextran. The dialysis chamber was incubated for 3-5 hours at 37° C. After incubation, protein was precipitated from aliquots of each chamber and the concentration of test compound in the supernatant of the plasma-containing compartment (Cserum) and of the buffer-containing compartment (Cbuffer) was determined by LC-MS. The fraction of unbound test compound (not bound to plasma) (fu) was calculated according to the following equation: […]
Background: Equilibrium dialysis compares concentrations on both sides of a semipermeable membrane.

Data set [2] deals with KRAS G12C-dependent Ba/F3 cells. The data set is described as follows: Ba/F3 proliferation assay, KRAS G12C. In kind it is cell-based. As to conditions: Mus musculus, BaF3, 72 h, AlamarBlue. The protocol:
Plasmids containing KRASG12 mutants (i.e. […], G12C, G12V) are obtained from GeneScript. To generate KRASG12-dependent Ba/F3 models, Ba/F3 cells are transduced with retroviruses containing vectors that harbor KRASG12 isoforms. Platinum-E cells (Cell Biolabs) are used for retrovirus packaging. Retrovirus is added to Ba/F3 cells. To ensure infection, 4 μg/mL polybrene is added and cells are spinfected. […] Cells with an infection efficiency of 10% to 20% are further cultivated and puromycin selection with 1 μg/mL is initiated. As a control, parental Ba/F3 cells are used to show selection status. Selection is considered successful when parental Ba/F3 cells cultures died. To evaluate the transforming potential of KRASG12 mutations, the growth medium is no longer supplemented with IL-3. Ba/F3 cells harboring the empty vector are used as a control. Approximately ten days before conducting the experiments, puromycin is left out.
Compounds are added using an Access Labcyte Workstation with a Labcyte Echo 550 or 555 accoustic dispenser. All treatments are performed in technical duplicates. […] AlamarBlue™ (ThermoFisher), a viability stain, is added and fluorescence measured in the PerkinElmer Envision HTS Multilabel Reader. The raw data are imported into and analyzed with the Boehringer Ingelheim proprietary software MegaLab (curve fitting based on the program PRISM, GraphPad Inc.).
Background: Alamar Blue is a resazurin reagent that responds to reducing activity.

Another data set concerns NCI-H358 cells. Put plainly: NCI-H358 CTG proliferation assay (120 h) (NSCLC, G12C). The format is cell-based, human. The conditions noted are these: Homo sapiens. The protocol: NCI-H358 CTG Proliferation Assay (120 h) (NSCLC, G12C)
NCI-H358 cells (ATCC No. CRL-5807) are dispensed into white bottom opaque 96 well plates (Perkin Elmer cat no. 5680) at a density of 2000 cells per well in 100 μL RPMI-1640 ATCC-Formulation (Gibco #A10491)+10% FCS (fetal calf serum) (assay 1) or into black 384-well plates, flat and clear bottom (Greiner, PNr. 781091) at a density of 200 cells per well in 60 μl RPMI-1640 ATCC-Formulation (Gibco #A10491)+10% FCS (fetal calf serum) (assay 2). […] Compounds (10 mM stock in DMSO) are added at logarithmic dose series using the HP Digital Dispenser D300 (Tecan) (assay 1) or the ECHO acoustic liquid handler system (Beckman Coulter) (assay 2), normalizing for added DMSO and including DMSO controls. For the TO time point measurement, untreated cells are analyzed at the time of compound addition. Plates are incubated for 120 h, and cell viability is measured using CellTiter-Glo luminescent cell viability reagent (Promega product code G7570). Viability (stated as percent of control) is defined as relative luminescence units RLU of each well divided by the RLU of cells in DMSO controls. IC50 values are determined from viability measurements by non-linear regression using a four parameter model.

Data set [3] in a line: Metabolic (microsomal) stability assay, human liver microsomes (HLM). In kind it is in vitro ADME. The conditions noted are these: predicted clearance as percent of liver blood flow, 1 μM. The protocol:
The metabolic degradation of the test compound is assayed at 37° C. with pooled liver microsomes (mouse (MLM), rat (RLM) or human (HLM)). The final incubation volume of 48 μL pertime point contains TRIS buffer (pH 7.5; 0.1 M), magnesium chloride (6.5 mM), microsomal protein (0.5 mg/mL for mouse/rat, 1 mg/mL for human specimens) and the test compound at a final concentration of 1 μM. Following a short preincubation period at 37° C., the reactions are initiated by addition of 12 μL beta-nicotinamide adenine dinucleotide phosphate, reduced form (NADPH, 10 mM) and terminated by transferring an aliquot into solvent after different time points (0, 5, 15, 30, 60 min). Additionally, the NADPH-independent degradation is monitored in incubations without NADPH, terminated at the last time point by addition of acetonitrile. The quenched incubations are pelleted by centrifugation (4,000 rpm, 15 min). An aliquot of the supernatant is assayed by LC-MS/MS to quantify the concentration of parent compound in the individual samples.
In vitro intrinsic clearance (CLint, in vitro) is calculated from the time course of the disappearance of the test drug during the microsomal incubation. Each plot is fitted to the first-order elimination rate constant as C(t)═C0*exp(−ke*t), where C(t) and C0 are the concentration of unchanged test drug at incubation time t and that at preincubation and ke is the disappearance rate constant of the unchanged drug. Subsequently, CLint in vitro (μL min^−1·amount protein) values are converted to predicted CLint,in vivo (mL min^−1 kg^−1) from incubation parameters according to the equation CLint, in vivo=CLint, in vitro×(incubation volume (ml)/amount protein (mg))×(amount protein (mg)/g liver tissue)×(liver weight/body wt.).
For better across species comparison the predicted clearance is expressed as percent of the liver blood flow [% QH] (mL min^−1·kg^−1) in the individual species. In general, high stability (corresponding to low % QH) of the compounds across species is desired.

The mark [4] stands for this setting: assay 1, CTG, read-out: H358 (assay 1) IC50.
Where [5] appears, read: assay 2, CTG, read-out: H358 (assay 2) IC50.

For `C[C@H](Oc1cc(N2C[C@H](C)NC3(CC3)C2)nc(-c2onc3c2CCC[C@@]32CCCc3sc(N)c(C#N)c32)n1)[C@@H]1CCCN1C` [I-8], in data set [1], the fraction unbound worked out at 0.77. Further, the IC50 – broadly, the concentration that inhibits the measured activity by half – in data set [2] came to 106 nM; in the data set on NCI-H358 cells (setting [4]) it was 874 nM. Besides, in data set [3], the “HLM QH” value is given as <24%.
Turning to `C[C@H](Oc1cc(-c2ccn(C[C@@H](C)O)n2)nc(-c2noc3c2CCC[C@@]32CCCc3sc(N)c(C#N)c32)n1)[C@@H]1CCCN1C` [II-117], in data set [1], the fraction unbound is 0.19. The IC50 is 7 nM in data set [2] and 98 nM with NCI-H358 cells (setting [5]). Besides, the “HLM QH” value in data set [3] was <24%.
The corresponding values for `C[C@H](Oc1cc(-n2cnc3cccnc32)nc(-c2noc3c2CCC[C@@]32CCCc3sc(N)c(C#N)c32)n1)[C@@H]1CCCN1C` [II-65] are 0.03, 97 nM, 3220 nM and <24%.
For `C[C@H](Oc1cc(-c2cnn(C)n2)nc(-c2noc3c2CCC[C@@]32CCCc3sc(N)c(C#N)c32)n1)[C@@H]1CCCN1C` [II-86], the fraction unbound in data set [1] was 0.34. In addition, the values for the IC50 (in data set [2]; in the data set on NCI-H358 cells (setting [5])) were 25 nM and 993 nM, respectively. Moreover, in data set [3], the “HLM QH” value is recorded as 35%.
For `C[C@H](Oc1cc(N2CCC[C@@H](O)C2)nc(-c2noc3c2CCC[C@@]32CCCc3sc(N)c(C#N)c32)n1)[C@@H]1CCCN1C` [II-59], in that order: 0.64, 31 nM, 337 nM and <24%.
The corresponding values for `C[C@H](Oc1cc(-c2cccc(CO)c2)nc(-c2noc3c2CCC[C@@]32CCCc3sc(N)c(C#N)c32)n1)[C@@H]1CCCN1C` [II-97] are 0.13, 58 nM, 242 nM and <24%.
For the compound `C[C@H](Oc1cc(-n2cc(-c3cccnc3)nn2)nc(-c2noc3c2CCC[C@@]32CCCc3sc(N)c(C#N)c32)n1)[C@@H]1CCCN1C` [II-123], the fraction unbound in data set [1] was determined as 0.11. Further, the IC50 was 15 nM in data set [2] and 439 nM in the data set on NCI-H358 cells (setting [5]). In addition, in data set [3], the “HLM QH” value is given as 28%.
The corresponding values for `C[C@H](Oc1cc(-c2cn[nH]c2)nc(-c2noc3c2CCC[C@@]32CCCc3sc(N)c(C#N)c32)n1)[C@@H]1CCCN1C` [II-87] are 0.26, 47 nM, 106 nM and <24%.
The corresponding values for `C[C@H](Oc1cc([C@H]2CCOC2)nc(-c2noc3c2CCC[C@@]32CCCc3sc(N)c(C#N)c32)n1)[C@@H]1CCCN1C` [II-88] are 0.2, 6 nM, 126 nM and 26%.
The corresponding values for `C[C@H](Oc1cc(-c2cncnc2)nc(-c2noc3c2CCC[C@@]32CCCc3sc(N)c(C#N)c32)n1)[C@@H]1CCCN1C` [II-82] are 0.66, 82 nM, 807 nM and <24%.
For `C[C@H](Oc1cc(-c2ccn(C)n2)nc(-c2noc3c2CCC[C@@]32CCCc3sc(N)c(C#N)c32)n1)[C@@H]1CCCN1C` [II-96], in data set [1], the fraction unbound came out at 0.25. The IC50 in data set [2] amounted to 8 nM; in the data set with NCI-H358 cells (setting [5]), 98 nM. For the same compound, the “HLM QH” value in data set [3] was <24%.
Consider `C[C@H](Oc1cc(-n2ccc(Br)n2)nc(-c2noc3c2CCC[C@@]32CCCc3sc(N)c(C#N)c32)n1)[C@@H]1CCCN1C` [II-110], for which the fraction unbound in data set [1] is 0.01. Also, the IC50 amounted to 14 nM in data set [2] and 217 nM in the data set with NCI-H358 cells (setting [5]). In data set [3], the “HLM QH” value is recorded as 47%.
The corresponding values for `C[C@H](Oc1cc(N2CCNC[C@@]23CCOC3)nc(-c2noc3c2CCC[C@@]32CCCc3sc(N)c(C#N)c32)n1)[C@@H]1CCCN1C` [II-51] are 0.39, 314 nM, 3360 nM and 37%.
For `C[C@H](Oc1cc(C2CCOCC2)nc(-c2noc3c2CCC[C@@]32CCCc3sc(N)c(C#N)c32)n1)[C@@H]1CCCN1C` [II-76], in that order: 0.61, 18 nM, 507 nM and 31%.
Regarding `C[C@H](Oc1cc(N2CCNC3(CC3)C2)nc(-c2onc3c2CCC[C@@]32CCCc3sc(N)c(C#N)c32)n1)[C@@H]1CCCN1C` [I-5], the fraction unbound in data set [1] is 0.51. The values for the IC50 (in data set [2]; with NCI-H358 cells (setting [4]); with NCI-H358 cells (setting [5])) were 124 nM, 813 nM and 852 nM, respectively. Besides, the “HLM QH” value in data set [3] is recorded as <24%.
For `C[C@H](Oc1cc(-n2ccnc2)nc(-c2noc3c2CCC[C@@]32CCCc3sc(N)c(C#N)c32)n1)[C@@H]1CCCN1C` [II-69], the fraction unbound in data set [1] amounted to 0.45. For the same compound, the figures for the IC50 (in data set [2]; with NCI-H358 cells (setting [5])) were 18 nM and 290 nM, respectively. In data set [3], the “HLM QH” value was <24%.
Regarding `C[C@H](Oc1cc(N2CCC(C#N)C2)nc(-c2noc3c2CCC[C@@]32CCCc3sc(N)c(C#N)c32)n1)[C@@H]1CCCN1C` (stereo partly drawn) [II-99], in data set [1], the fraction unbound came to 0.11. Besides, the 50% inhibitory concentration (IC50) in data set [2] stood at 28 nM; in the data set with NCI-H358 cells (setting [5]), 1340 nM. Besides, the “HLM QH” value in data set [3] is given as <24%.
The corresponding values for `C[C@H](Oc1cc(N2CCN3CCC3C2)nc(-c2onc3c2CCC[C@@]32CCCc3sc(N)c(C#N)c32)n1)[C@@H]1CCCN1C` (stereo partly drawn) [I-9] are 0.8, 264 nM, 1310 nM and <24%.
For `C[C@H](Oc1cc(-c2ccn(C3CC3)n2)nc(-c2noc3c2CCC[C@@]32CCCc3sc(N)c(C#N)c32)n1)[C@@H]1CCCN1C` [II-98], in that order: 0.01, 23 nM, 242 nM and <24%.
Take `C[C@H](Oc1cc(-c2ccn(C3COC3)n2)nc(-c2noc3c2CCC[C@@]32CCCc3sc(N)c(C#N)c32)n1)[C@@H]1CCCN1C` [II-109]: in data set [1], the fraction unbound was found to be 0.18. Besides, the IC50 in data set [2] turned out to be 13 nM; in the data set on NCI-H358 cells (setting [5]), 78 nM. The “HLM QH” value in data set [3] is <24%.
